Test results taken from patent US10273224B2, “Substituted pyrimidine compounds, compositions and medicinal applications thereof” (JUBILANT BIOSYS LIMITED, priority 2013, dated 2019).
Structures can show the parent of a compound that is named as a salt.

Target: T1, EGFR (L858R & T790M) (Homo sapiens, UniProt P00533, L858R/T790M)
T1 construct: GST; purchased Proqinase
Assay: EGFR (L858R & T790M) inhibition assay, HTRF method
Conditions: biochemical HTRF; EGFR (T790M/L858R) 2.5 nM, ATP 5 μM, 60 min room temperature
Method: Example 25: Biological Activity: EGFR T790M Assay Protocol
The objective of the experiment is to find the IC50 for the compounds using HTRF method.
Reagents for Enzyme Assay:
1. Enzyme Assay Buffer: 60 mM HEPES (pH 7.4), 50 mM NaCl, 20 mM MgCl2, 5 mM MnCl2, filter using 0.2 µm pore size, store at 4° C.
Supplements (add fresh to the enzyme buffer): Make 1M DTT stock, 5% BSA stock and 0.1M Na3OV4 stored at 4° C. Enzyme assay buffer 50 ml, 1 M DTT 100 μl, 5% BSA 500 μl, 0.1M Na3OV4 50 μl.
2. GST-hEGFR (L858R), active: EGFR (T790M/L858R), active (Proqinase), 3.6 μM stock; 2.5 nM in final assay.
3. Gastrin Precusor-Biotinylated: Gastrin precursor (Tyr87) biotinylated peptide (EEAY*GWM), Cell Signaling Tech 1310, Lot-7, Want final 0.5 μM in assay
4. ATP: 10 mM stock in 100 μl Enzyme assay buffer pH 7.4 prepared freshly, want 5 μM in final assay.
5. Test compounds: Dissolve powders in 100% DMSO to a final stock concentration of 10 mM (volume in μL to add for 10 mM=mg powder×10^5/MW). Final comp concentration in the assay plate is starting at 10 μM.
1. HTRF buffer: 50 mM Tris-HCl, pH-7.5, 100 mM NaCl, 0.1% BSA, 0.05% Tween20, 0.5 mM EDTA, filter using 0.2 µm pore size, store at 4° C.
Phycolink® Streptavidin-Allophycocyanin (SA-APC) Prozyme, Cat. #PJ25S, Lot #896 085, 2.06 mg/mL, APC concentration is 11.6 μM, streptavidin concentration is 15.5 μM. Want 12 nM final in assay (based on streptavidin concentration).
2. Europium-W1024-PT-66 Anti Phospho Tyrosine Antibody: Perkin Elmer (AD0068), monoclonal IgG1 that recognizes phospho tyrosine peptide 100 μg/ml stock. Want 0.1 nM final in assay.
• 1. Make the compound dilution by TECAN as per the above scheme. • 2. Add 16 μl of diluted compound to the assay plate by using TECAN • 3. Add 10 μl of enzyme mix to each well except mins. • 4. Add 20 μl of substrate and ATP mix into each well of the assay plate manually. • 5. Incubate the plate at room temperature for 60 min with shaking. • 6. Meanwhile prepare the HTRF mix and add 75 μl to the HTRF plate. • 7. When the incubation is over, transfer 10 μl of the reaction mixture to the HTRF assay plate and incubate for 30 min at room temperature with shaking. • 8. Take the reading in Pherastar (ext 337 nm, em 665 & 620 nm). • 9. Analyze the results using Graphpad prism after calculation the z factor, signal window and % inhibition to get the IC50.
Compounds having IC50<10 nM are designated as “A”; 10-100 nM are designated as “B”; and >100 nM as “C”.

T1 sequence (P00533 25-1210 T790M/L858R): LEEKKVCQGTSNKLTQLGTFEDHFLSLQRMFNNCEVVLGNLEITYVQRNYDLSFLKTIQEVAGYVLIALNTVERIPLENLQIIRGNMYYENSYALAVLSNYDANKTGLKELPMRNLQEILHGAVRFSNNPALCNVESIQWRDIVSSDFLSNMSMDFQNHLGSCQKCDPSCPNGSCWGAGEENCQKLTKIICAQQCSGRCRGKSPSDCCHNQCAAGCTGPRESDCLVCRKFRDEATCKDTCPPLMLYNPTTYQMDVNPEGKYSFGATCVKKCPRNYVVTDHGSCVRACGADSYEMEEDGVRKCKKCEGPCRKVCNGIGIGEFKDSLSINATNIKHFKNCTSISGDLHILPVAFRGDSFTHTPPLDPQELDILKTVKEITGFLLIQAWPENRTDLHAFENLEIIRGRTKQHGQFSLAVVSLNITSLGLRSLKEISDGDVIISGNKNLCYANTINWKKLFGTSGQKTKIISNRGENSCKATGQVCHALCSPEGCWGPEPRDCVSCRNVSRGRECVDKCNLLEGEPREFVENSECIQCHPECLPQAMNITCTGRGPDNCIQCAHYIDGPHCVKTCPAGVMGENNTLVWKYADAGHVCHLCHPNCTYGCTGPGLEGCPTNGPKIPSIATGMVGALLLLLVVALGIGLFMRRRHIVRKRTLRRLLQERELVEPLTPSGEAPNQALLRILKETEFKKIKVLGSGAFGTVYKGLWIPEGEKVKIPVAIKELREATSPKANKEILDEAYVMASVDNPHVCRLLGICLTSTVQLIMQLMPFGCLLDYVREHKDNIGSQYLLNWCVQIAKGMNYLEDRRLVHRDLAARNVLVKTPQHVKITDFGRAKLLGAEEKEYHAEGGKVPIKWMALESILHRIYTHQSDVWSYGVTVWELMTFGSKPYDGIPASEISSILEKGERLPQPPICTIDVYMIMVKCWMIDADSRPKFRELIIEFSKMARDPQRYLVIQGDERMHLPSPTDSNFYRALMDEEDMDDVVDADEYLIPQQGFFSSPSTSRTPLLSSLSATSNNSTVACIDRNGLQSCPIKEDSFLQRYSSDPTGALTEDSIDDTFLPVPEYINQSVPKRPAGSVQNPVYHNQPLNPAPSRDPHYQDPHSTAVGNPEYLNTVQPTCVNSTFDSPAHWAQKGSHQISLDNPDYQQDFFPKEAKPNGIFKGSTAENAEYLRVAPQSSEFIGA

First: C=CC(=O)Nc1cccc(Nc2nc(Nc3cc(COC)n(C)n3)ncc2Cl)c1 [Compound I-24, N-(3-((5-chloro-2-((5-(methoxymethyl)-1-methyl-1H-pyrazol-3-yl)amino)pyrimidin-4-yl)amino)phenyl)acrylamide]
Second: C=CC(=O)Nc1cccc(Nc2nc(Nc3cc(CN4CCC4)n(C)n3)ncc2Cl)c1 [Compound I-42, N-(3-((2-((5-(azetidin-1-ylmethyl)-1-methyl-1H-pyrazol-3-yl)amino)-5-chloropyrimidin-4-yl)amino)phenyl)acrylamide, acetate salt]
The IC50 of the first is lower: 10 to 100 nM for the first, > 100 nM for the second. The first is the more potent here.

First: C=CC(=O)Nc1cccc(Nc2nc(Nc3cnn(C(C)C)c3)ncc2Cl)c1 [Compound I-4, N-(3-((5-chloro-2-((1-isopropyl-1H-pyrazol-4-yl)amino)pyrimidin-4-yl)amino)phenyl)acrylamide]
Second: C=CC(=O)Nc1cccc(Nc2nc(Nc3cnn(C)c3)ncc2Cl)c1 [Compound I-19, N-(3-((5-chloro-2-((1-methyl-1H-pyrazol-4-yl)amino)pyrimidin-4-yl)amino)phenyl)acrylamide]
The IC50 of the first is higher: 10 to 100 nM for the first, < 10 nM for the second. The second is the more potent here.

First: C=CC(=O)N1CCCC(Nc2nc(Nc3cnn(C4CCC4)c3)ncc2Cl)C1 (single isomer, unassigned) [II-5 (Enantiomer 1), 1-(3-((5-chloro-2-((1-cyclobutyl-1H-pyrazol-4-yl)amino)pyrimidin-4-yl)amino)piperidin-1-yl)prop-2-en-1-one]
Second: C=CC(=O)NC1CCCC(Nc2nc(Nc3cnn(C)c3)ncc2Cl)C1 (stereo not shown) [Compound I-92, N-(3-((5-chloro-2-((1-methyl-1H-pyrazol-4-yl)amino)pyrimidin-4-yl)amino)cyclohexyl)acrylamide]
The IC50 of the first is higher: > 100 nM for the first, 10 to 100 nM for the second. The second is the more potent here.

`C=CC(=O)N1CCCC(Nc2nc(Nc3cnn(C4CCC4)c3)ncc2Cl)C1` (single isomer, unassigned) [II-6 (Enantiomer 2), 1-(3-((5-chloro-2-((1-cyclobutyl-1H-pyrazol-4-yl)amino)pyrimidin-4-yl)amino)piperidin-1-yl)prop-2-en-1-one] and `C=CC(=O)N[C@@H]1CCC[C@@H](Nc2nc(Nc3cnn(C)c3)ncc2Cl)C1` (single isomer, unassigned) [I-106 (Enantiomer 1)] cannot be ordered by IC50: > 100 nM for the first, > 100 nM for the second.

First: C=CC(=O)Nc1cccc(Nc2nc(Nc3cnn(S(C)(=O)=O)c3)ncc2Cl)c1 [Compound I-10, N-(3-((5-chloro-2-((1-(methylsulfonyl)-1H-pyrazol-4-yl)amino)pyrimidin-4-yl)amino)phenyl)acrylamide]
Second: C=CC(=O)Nc1cccc(Nc2nc(Nc3cnn(CC(C)(C)O)c3)ncc2Cl)c1 [Compound I-17, N-(3-((5-chloro-2-((1-(2-hydroxy-2-methylpropyl)-1H-pyrazol-4-yl)amino)pyrimidin-4-yl)amino)phenyl)acrylamide]
The IC50 of the first is lower: 10 to 100 nM for the first, > 100 nM for the second. The first is the more potent here.

Compared with `C=CC(=O)Nc1cccc(Oc2nc(Nc3cnn(CC4CC4)c3)ncc2Cl)c1` [Compound I-82, N-(3-((5-chloro-2-((1-(cyclopropylmethyl)-1H-pyrazol-4-yl)amino)pyrimidin-4-yl)oxy)phenyl)acrylamide], `C=CC(=O)Nc1cccc(Oc2nc(Nc3cnn(C)c3)ncc2Cl)c1` [Compound I-85, N-(3-((5-chloro-2-((1-methyl-1H-pyrazol-4-yl)amino)pyrimidin-4-yl)oxy)phenyl)acrylamide] is lower in IC50: 10 to 100 nM for the first, < 10 nM for the second.

First: C=CC(=O)Nc1cccc(Nc2nc(Nc3cnn(C4CCN(C)CC4)c3)ncc2OC)c1 [Compound I-12, N-(3-((5-methoxy-2-((1-(1-methylpiperidin-4-yl)-1H-pyrazol-4-yl)amino)pyrimidin-4-yl)amino)phenyl)acrylamide]
Second: C=CC(=O)Nc1cccc(Nc2nc(Nc3cnn(C4CCN(C)CC4)c3)ncc2C(F)(F)F)c1 [Compound I-14, N-(3-((2-((1-(1-methylpiperidin-4-yl)-1H-pyrazol-4-yl)amino)-5-(trifluoromethyl)pyrimidin-4-yl)amino)phenyl)acrylamide]
The IC50 of the first is lower: 10 to 100 nM for the first, > 100 nM for the second.

First: C=C(F)C(=O)Nc1cccc(Nc2nc(Nc3cnn(C)c3)ncc2Cl)c1 [Compound I-33, N-(3-((5-chloro-2-((1-methyl-1H-pyrazol-4-yl)amino)pyrimidin-4-yl)amino)phenyl)-2-fluoroacrylamide]
Second: C=CC(=O)Nc1cccc(Nc2nc(Nc3cnn(C4COC4)c3)ncc2Cl)c1 [Compound I-31, N-(3-((5-chloro-2-((1-(oxetan-3-yl)-1H-pyrazol-4-yl)amino)pyrimidin-4-yl)amino)phenyl)acrylamide]
The IC50 of the first is higher: > 100 nM for the first, 10 to 100 nM for the second. The second is the more potent here.

Going from `C=CC(=O)Nc1cccc(Nc2nc(Nc3nnc(C(F)(F)F)s3)ncc2Cl)c1` [Compound I-44, N-(3-((5-chloro-2-((5-(trifluoromethyl)-1,3,4-thiadiazol-2-yl)amino)pyrimidin-4-yl)amino)phenyl)acrylamide] to `C=CC(=O)Nc1cccc(Nc2nc(Nc3cnn(C4CCNCC4)c3)ncc2Cl)c1` [Compound I-62, N-(3-((5-chloro-2-((1-(piperidin-4-yl)-1H-pyrazol-4-yl)amino)pyrimidin-4-yl)amino)phenyl)acrylamide trifluoroacetate], the IC50 falls from > 100 nM to < 10 nM. The second is the more potent here.

`C=CC(=O)Nc1cccc(Nc2nc(Nc3cnn(C)c3C)ncc2Cl)n1` (single isomer, unassigned) [Compound I-74, N-(6-((5-chloro-2-((1,5-dimethyl-1H-pyrazol-4-yl)amino)pyrimidin-4-yl)amino)pyridin-2-yl)acrylamide] and `C=CC(=O)Nc1cccc(Nc2nc(Nc3c(C)nn(C4CCN(C)CC4)c3C)ncc2Cl)c1` [Compound I-8, N-(3-((5-chloro-2-((3,5-dimethyl-1-(1-methylpiperidin-4-yl)-1H-pyrazol-4-yl)amino)pyrimidin-4-yl)amino)phenyl)acrylamide] cannot be ordered by IC50: > 100 nM for the first, > 100 nM for the second.

`C=CC(=O)NCC1CCCC(Nc2nc(Nc3cnn(C)c3)ncc2Cl)C1` (stereo not shown) [Compound I-108, N-((3-((5-chloro-2-((1-methyl-1H-pyrazol-4-yl)amino)pyrimidin-4-yl)amino)cyclohexyl)methyl)acrylamide] and `CN(C)C/C=C/C(=O)N[C@@H]1CCC[C@@H](CNc2nc(Nc3cnn(C)c3)ncc2Cl)C1` (single isomer, unassigned) [I-102 (diastereomer 1)] cannot be ordered by IC50: > 100 nM for the first, > 100 nM for the second.

`C=CC(=O)NC1CCCC(Oc2nc(Nc3cnn(C)c3)ncc2Cl)C1` (single isomer, unassigned) [I-88 (Isomer 1), N-(3-((5-chloro-2-((1-methyl-1H-pyrazol-4-yl)amino)pyrimidin-4-yl)oxy)cyclohexyl)acrylamide] and `C=CC(=O)Nc1cccc(Nc2nc(Nc3cnn(C4CCCC(O)C4)c3)ncc2Cl)c1` (stereo not shown) [Compound I-38, N-(3-((5-chloro-2-((1-(3-hydroxycyclohexyl)-1H-pyrazol-4-yl)amino)pyrimidin-4-yl)amino)phenyl)acrylamide] cannot be ordered by IC50: > 100 nM for the first, > 100 nM for the second.

`CN1CCC(n2cc(Nc3ncc(F)c(Nc4cccc(NC(=O)C=C5CCCCC5)c4)n3)cn2)CC1` [Compound I-50, 2-cyclohexylidene-N-(3-((5-fluoro-2-((1-(1-methylpiperidin-4-yl)-1H-pyrazol-4-yl)amino)pyrimidin-4-yl)amino)phenyl)acetamide] and `CN1CCC(n2cc(Nc3ncc(Cl)c(Nc4cccc(NC(=O)C=C5CCC(F)(F)CC5)c4)n3)cn2)CC1` [Compound I-25, N-(3-((5-chloro-2-((1-(1-methylpiperidin-4-yl)-1H-pyrazol-4-yl)amino)pyrimidin-4-yl)amino)phenyl)-2-(4,4-difluorocyclohexylidene)acetamide] cannot be ordered by IC50: > 100 nM for the first, > 100 nM for the second.

First: C=CC(=O)Nc1cccc(Oc2nc(Nc3cnn(CCOC)c3)ncc2Cl)c1 [Compound I-87, N-(3-((5-chloro-2-((1-(2-methoxyethyl)-1H-pyrazol-4-yl)amino)pyrimidin-4-yl)oxy)phenyl)acrylamide]
Second: C=CC(=O)Nc1cccc(Nc2nc(Nc3cc(CN4CCOCC4)n(C)n3)ncc2Cl)c1 [Compound I-46, N-(3-((5-chloro-2-((1-methyl-5-(morpholinomethyl)-1H-pyrazol-3-yl)amino)pyrimidin-4-yl)amino)phenyl)acrylamide]
The IC50 of the first is lower: 10 to 100 nM for the first, > 100 nM for the second. The first is the more potent here.
